Measurements taken from patent US5789542A, “Amphipathic peptides” (Board of Supervisors of Louisiana State University and …, priority 1997, dated 1998).
Where a SMILES comes first, the peptide text is derived from it.

Key:
Type in all cases: cell-based
murine cell line 3T3 = assay: Sublethal concentration, Tryptan blue staining, 3T3 cells; settings: healthy Swiss mouse fibroblast cells, thirty minutes at 37° C., highest concentration with at least one nucleus not stained
Procedure: (§1) Also shown in Table 1 are sublethal concentrations for some of the peptides against the murine cell lines 3T3 and 3T12. Dilutions of peptide were prepared over a range of concentrations. Equal volumes of peptide solution and 250-750 murine cells were mixed together. The cells were incubated for thirty minutes at 37° C. 50 μL of Tryptan blue stain were then added to each well. Under light microscopy, killed cells could be visualized by the fact that their nuclei were stained. The sublethal dose was the highest concentration for which at least one cell nucleus was not stained. (Blank entries in Table 1 correspond to assays that had not been completed as of the date this application is being filed. Values for those entries will be determined in future assays performed in the same manner.)
(§2) P. aeruginosa and E. coli are Gram-negative bacteria, while S. aureus is a Gram-positive bacterium. 3T3 cells are healthy Swiss mouse fibroblast cells, and 3T12 cells are transformed, immortalized mouse fibroblast cells. Thus the novel peptides (at the proper concentrations) have activity against both Gram-negative and Gram-positive bacteria, while not showing activity against mammalian cells. This combination of properties is itself rather unusual in a lytic peptide.

murine cell line 3T12 = assay: Sublethal concentration, Tryptan blue staining, 3T12 cells; settings: transformed, immortalized mouse fibroblast cells, thirty minutes at 37° C., highest concentration with at least one nucleus not stained
Procedure: as §1, §2

[1] = test system: Staphylococcus aureus ATCC 25723; assay: Minimum inhibitory concentration by broth microdilution, S. aureus; settings: 5×10^4 cells, incubated overnight
Procedure: (§3) Minimum inhibitory concentrations of several of the peptides were measured against E. coli ATCC 25922, Pseudomonas aeruginosa ATCC 27853, and Staphylococcus aureus ATCC 25723. Minimum inhibitory concentrations were obtained by the broth microdilution method. Peptide solutions were prepared over a range of concentrations from 2 μg/mL to 256 μg/mL. 5×10^4 cells were added to the peptide solutions in sterile wells and incubated overnight. Wells in which the organisms grew became turbid. The minimum inhibitory concentration was the lowest concentration that inhibited growth of the organism.
as §2

E. coli ATCC 25922 = assay: Minimum inhibitory concentration by broth microdilution, E. coli; settings: 5×10^4 cells, incubated overnight
Procedure: as §3, §2

[2] = test system: Pseudomonas aeruginosa ATCC 27853; assay: Minimum inhibitory concentration by broth microdilution, P. aeruginosa; settings: 5×10^4 cells, incubated overnight
Procedure: as §3, §2

mammalian cell = assay: Mammalian cell permeation to an exterior fluorescent dye; settings: ratio to antibacterial concentration

COC(=O)[C@H](C)NC(=O)[C@H](CC(C)C)NC(=O)[C@H](CCCCN)NC(=O)[C@H](CCCCN)NC(=O)[C@H](C)NC(=O)[C@H](CC(C)C)NC(=O)[C@H](CCCCN)NC(=O)[C@H](C)NC(=O)[C@H](CC(C)C)NC(=O)[C@H](CCCCN)NC(=O)[C@H](CCCCN)NC(=O)[C@H](C)NC(=O)[C@H](CC(C)C)NC(=O)[C@@H](N)CCCCN [(KLAKKLA)2] (H-KLAKKLAKLAKKLA-OMe)
Sublethal Concentration, 3T3 (murine cell line 3T3): 394 µM
Sublethal Concentration, 3T12 (murine cell line 3T12): 788 µM

(KLAKKLA)4 (KLAKKLAKLAKKLAKLAKKLAKLAKKLA)
Minimum Inhibitory Concentration, S. aureus [1]: 9.0 µM
Minimum Inhibitory Concentration, E. coli (E. coli ATCC 25922): 9.0 µM
Sublethal Concentration, 3T3 (murine cell line 3T3): 13 µM
Sublethal Concentration, 3T12 (murine cell line 3T12): 52 µM
Minimum Inhibitory Concentration, P. aeruginosa [2]: 9.0 µM

(KLAKKLA)
Minimum Inhibitory Concentration, S. aureus [1]: > 100 µM
Minimum Inhibitory Concentration, E. coli (E. coli ATCC 25922): > 100 µM
Sublethal Concentration, 3T3 (murine cell line 3T3): N.L.
Sublethal Concentration, 3T12 (murine cell line 3T12): N.L.
Minimum Inhibitory Concentration, P. aeruginosa [2]: > 100 µM

(KLAKLAK)4 (KLAKLAKKLAKLAKKLAKLAKKLAKLAK)
Minimum Inhibitory Concentration, S. aureus [1]: 9.4 µM
Minimum Inhibitory Concentration, E. coli (E. coli ATCC 25922): 9.4 µM
Minimum Inhibitory Concentration, P. aeruginosa [2]: 9.4 µM

CC[C@H](C)[C@H](NC(=O)CN)C(=O)NCC(=O)N[C@@H](C)C(=O)N[C@H](C(=O)N[C@@H](CC(C)C)C(=O)N[C@@H](CCCCN)C(=O)N[C@H](C(=O)N[C@@H](CC(C)C)C(=O)N[C@H](C(=O)N[C@H](C(=O)NCC(=O)N[C@@H](CC(C)C)C(=O)N1CCC[C@H]1C(=O)N[C@@H](C)C(=O)N[C@@H](CC(C)C)C(=O)N[C@H](C(=O)N[C@@H](CO)C(=O)N[C@@H](Cc1c[nH]c2ccccc12)C(=O)N[C@H](C(=O)N[C@@H](CCCCN)C(=O)N[C@@H](CCCNC(=N)N)C(=O)N[C@@H](CCCCN)C(=O)N[C@@H](CCCNC(=N)N)C(=O)N[C@@H](CCC(N)=O)C(=O)N[C@@H](CCC(N)=O)C(N)=O)[C@@H](C)CC)[C@@H](C)CC)[C@@H](C)O)[C@@H](C)O)C(C)C)C(C)C [melittin, reference compound]
Minimum Inhibitory Concentration, S. aureus [1]: 0.56 µM
Minimum Inhibitory Concentration, E. coli (E. coli ATCC 25922): 0.56 µM
Sublethal Concentration, 3T3 (murine cell line 3T3): 0.78 µM
Sublethal Concentration, 3T12 (murine cell line 3T12): 0.78 µM
Minimum Inhibitory Concentration, P. aeruginosa [2]: 2.3 µM

magainin 2 (KLGKKLGKLGKKLGKLGKKLG) [naturally occurring lytic peptide used for comparison, reference compound]
Minimum Inhibitory Concentration, S. aureus [1]: 1.3 µM
Minimum Inhibitory Concentration, E. coli (E. coli ATCC 25922): 1.3 µM
Minimum Inhibitory Concentration, P. aeruginosa [2]: 0.65 µM

(KALKALK)3
Minimum Inhibitory Concentration, S. aureus [1]: 7.8 µM
Minimum Inhibitory Concentration, E. coli (E. coli ATCC 25922): 3.9 µM
Minimum Inhibitory Concentration, P. aeruginosa [2]: 3.9 µM

(KLGKKLG)3 (KLGKKLGKLGKKLGKLGKKLG)
Minimum Inhibitory Concentration, S. aureus [1]: 3.4 µM
Minimum Inhibitory Concentration, E. coli (E. coli ATCC 25922): 3.4 µM
Sublethal Concentration, 3T3 (murine cell line 3T3): 565 µM
Sublethal Concentration, 3T12 (murine cell line 3T12): 565 µM
Minimum Inhibitory Concentration, P. aeruginosa [2]: 3.4 µM

(KLAKKLA)3 (KLAKKLAKLAKKLAKLAKKLA)
Minimum Inhibitory Concentration, S. aureus [1]: 4.2 µM
Minimum Inhibitory Concentration, E. coli (E. coli ATCC 25922): 4.2 µM
Sublethal Concentration, 3T3 (murine cell line 3T3): 9 µM
Sublethal Concentration, 3T12 (murine cell line 3T12): 17 µM
Minimum Inhibitory Concentration, P. aeruginosa [2]: 4.2 µM

cecropin B (KWKVFKKIEKMGRNIRNGIVKAGPAIAVLGEAKAL; UniProt P01508 27-61, looked up) [naturally occurring lytic peptide used for comparison, reference compound]
Minimum Inhibitory Concentration, S. aureus [1]: 1.7 µM
Minimum Inhibitory Concentration, E. coli (E. coli ATCC 25922): 0.20 µM
Minimum Inhibitory Concentration, P. aeruginosa [2]: 0.20 µM

(KLAKLAK)
Minimum Inhibitory Concentration, S. aureus [1]: > 95 µM
Minimum Inhibitory Concentration, E. coli (E. coli ATCC 25922): > 95 µM
Minimum Inhibitory Concentration, P. aeruginosa [2]: > 95 µM

COC(=O)[C@H](C)NC(=O)[C@H](CC(C)C)NC(=O)[C@H](CCCCN)NC(=O)[C@H](CCCCN)NC(=O)[C@H](C)NC(=O)[C@H](CC(C)C)NC(=O)[C@H](CCCCN)NC(=O)[C@H](C)NC(=O)[C@H](CC(C)C)NC(=O)[C@H](CCCCN)NC(=O)[C@H](CCCCN)NC(=O)[C@H](C)NC(=O)[C@H](CC(C)C)NC(=O)[C@@H](N)CCCCN [Peptide 14-mer, (KLAKKLA)2 -OCH3] (H-KLAKKLAKLAKKLA-OMe)
Concentration at which mammalian cell permeation to an exterior fluorescent dye begins, relative to concentrations that effectively inhibited bacterial growth (mammalian cell): about 50 times

(KLAKLAK)2 (KLAKLAKKLAKLAK)
Minimum Inhibitory Concentration, S. aureus [1]: 5.8 µM
Minimum Inhibitory Concentration, E. coli (E. coli ATCC 25922): 5.8 µM
Minimum Inhibitory Concentration, P. aeruginosa [2]: 5.8 µM

CC(C)C[C@H](NC(=O)[C@H](CCCCN)NC(=O)[C@H](C)NC(=O)[C@H](CC(C)C)NC(=O)[C@H](CCCCN)NC(=O)[C@H](CCCCN)NC(=O)[C@H](C)NC(=O)[C@H](CC(C)C)NC(=O)[C@H](CCCCN)NC(=O)[C@H](C)NC(=O)[C@H](CC(C)C)NC(=O)[C@H](CCCCN)NC(=O)[C@H](CCCCN)NC(=O)[C@H](C)NC(=O)[C@H](CC(C)C)NC(=O)[C@H](CCCCN)NC(=O)[C@H](C)NC(=O)[C@H](CC(C)C)NC(=O)[C@@H](N)CCCCN)C(=O)N[C@@H](C)C(=O)N[C@@H](CCCCN)C(N)=O [(KLAKLAK)3]
Minimum Inhibitory Concentration, S. aureus [1]: 3.7 µM
Minimum Inhibitory Concentration, E. coli (E. coli ATCC 25922): 3.7 µM
Minimum Inhibitory Concentration, P. aeruginosa [2]: 3.7 µM
